In ChEMBL document CHEMBL1151757, “Synthesis, radiosynthesis, and biological evaluation of fluorine-18-labeled 2beta-carbo(fluoroalkoxy)-3beta-(3'-((Z)-2-haloethenyl)phenyl)nortropanes: candidate radioligands for in vivo imaging of the serotonin transporter with positron emission tomography” (J Med Chem, 2008):

Assays:
Caudate [1] = test: Drug uptake in anesthetized cynomolgus monkey brain caudate after 27.5 mins postinjection; format: ADME, organism-based, Macaca fascicularis, Caudate nucleus; details: in vivo
[2] = Drug uptake in anesthetized cynomolgus monkey brain occipital lobe after 27.5 mins postinjection; format: ADME, organism-based, Macaca fascicularis; details: in vivo
[3] = Ratio of drug uptake in frontal lobe to cerebellum in anesthetized cynomolgus monkey after 135 mins postinjection; format: ADME, organism-based, Macaca fascicularis; details: in vivo, 2.25 h
Pons [4] = test: Drug uptake in anesthetized cynomolgus monkey brain pons after 2.5 mins postinjection; format: ADME, organism-based, Macaca fascicularis; details: in vivo
[5] = Drug uptake in anesthetized cynomolgus monkey brain cerebellum after 6.5 mins postinjection; format: ADME, organism-based, Macaca fascicularis; details: in vivo
Pons [6] = test: Drug uptake in anesthetized cynomolgus monkey brain pons after 22.5 mins postinjection; format: ADME, organism-based, Macaca fascicularis; details: in vivo, 0.375 h
Pons [7] = test: Drug uptake in anesthetized cynomolgus monkey brain pons after 165 mins postinjection; format: ADME, organism-based, Macaca fascicularis; details: in vivo, 2.75 h
Medulla [8] = test: Drug uptake in anesthetized cynomolgus monkey brain medulla after 105 mins postinjection; format: ADME, organism-based, Macaca fascicularis; details: in vivo, 1.75 h
Medulla [9] = test: Drug uptake in anesthetized cynomolgus monkey brain medulla after 3.5 mins postinjection; format: ADME, organism-based, Macaca fascicularis; details: in vivo
Putamen [10] = test: Drug uptake in anesthetized cynomolgus monkey brain putamen after 3.5 mins postinjection; format: ADME, organism-based, Macaca fascicularis; details: in vivo
[11] = Drug uptake in anesthetized cynomolgus monkey brain frontal lobe after 15.5 mins postinjection; format: ADME, organism-based, Macaca fascicularis; details: in vivo
[12] = Ratio of drug uptake in midbrain to cerebellum in anesthetized cynomolgus monkey after 85 mins postinjection; format: ADME, organism-based, Macaca fascicularis; details: in vivo
[13] = Drug uptake in anesthetized cynomolgus monkey brain occipital lobe after 35 mins postinjection; format: ADME, organism-based, Macaca fascicularis; details: in vivo
[14] = Ratio of drug uptake in caudate to cerebellum in anesthetized cynomolgus monkey after 155 mins postinjection; format: ADME, organism-based, Macaca fascicularis; details: in vivo
[15] = Ratio of drug uptake in thalamus to cerebellum in anesthetized cynomolgus monkey after 135 mins postinjection; format: ADME, organism-based, Macaca fascicularis; details: in vivo, 2.25 h
Caudate [16] = test: Drug uptake in anesthetized cynomolgus monkey brain caudate after 235 mins postinjection; format: ADME, organism-based, Macaca fascicularis, Caudate nucleus; details: in vivo
[17] = Drug uptake in anesthetized cynomolgus monkey brain occipital lobe after 165 mins postinjection; format: ADME, organism-based, Macaca fascicularis; details: in vivo, 2.75 h
[18] = Drug uptake in anesthetized cynomolgus monkey brain occipital lobe after 65 mins postinjection; format: ADME, organism-based, Macaca fascicularis; details: in vivo
Putamen [19] = test: Drug uptake in anesthetized cynomolgus monkey brain putamen after 45 mins postinjection; format: ADME, organism-based, Macaca fascicularis; parameters: unit not given here; details: in vivo, 0.75 h
Medulla [20] = test: Drug uptake in anesthetized cynomolgus monkey brain medulla after 55 mins postinjection; format: ADME, organism-based, Macaca fascicularis; details: in vivo
Thalamus [21] = test: Drug uptake in anesthetized cynomolgus monkey brain thalamus after 65 mins postinjection; format: ADME, organism-based, Macaca fascicularis; parameters: unit not given here; details: in vivo
Putamen [22] = test: Drug uptake in anesthetized cynomolgus monkey brain putamen after 135 mins postinjection; format: ADME, organism-based, Macaca fascicularis; details: in vivo, 2.25 h
[23] = Ratio of drug uptake in occipital lobe to cerebellum in anesthetized cynomolgus monkey after 175 mins postinjection; format: ADME, organism-based, Macaca fascicularis; details: in vivo
[24] = Drug uptake in anesthetized cynomolgus monkey brain cerebellum after 27.5 mins postinjection; format: ADME, organism-based, Macaca fascicularis; details: in vivo
Putamen [25] = test: Drug uptake in anesthetized cynomolgus monkey brain putamen after 35 mins postinjection; format: ADME, organism-based, Macaca fascicularis; parameters: unit not given here; details: in vivo
[26] = Drug uptake in anesthetized cynomolgus monkey brain frontal lobe after 235 mins postinjection; format: ADME, organism-based, Macaca fascicularis; details: in vivo
Thalamus [27] = test: Drug uptake in anesthetized cynomolgus monkey brain thalamus after 27.5 mins postinjection; format: ADME, organism-based, Macaca fascicularis; parameters: unit not given here; details: in vivo
Pons [28] = test: Drug uptake in anesthetized cynomolgus monkey brain pons after 95 mins postinjection; format: ADME, organism-based, Macaca fascicularis; details: in vivo
[29] = Drug uptake in anesthetized cynomolgus monkey brain frontal lobe after 55 mins postinjection; format: ADME, organism-based, Macaca fascicularis; details: in vivo
[30] = Drug uptake in anesthetized cynomolgus monkey brain occipital lobe after 145 mins postinjection; format: ADME, organism-based, Macaca fascicularis; details: in vivo
Pons [31] = test: Drug uptake in anesthetized cynomolgus monkey brain pons after 1.5 mins postinjection; format: ADME, organism-based, Macaca fascicularis; details: in vivo, 0.025 h
Medulla [32] = test: Drug uptake in anesthetized cynomolgus monkey brain medulla after 65 mins postinjection; format: ADME, organism-based, Macaca fascicularis; details: in vivo
Pons [33] = test: Drug uptake in anesthetized cynomolgus monkey brain pons after 6.5 mins postinjection; format: ADME, organism-based, Macaca fascicularis; details: in vivo
Thalamus [34] = test: Drug uptake in anesthetized cynomolgus monkey brain thalamus after 3.5 mins postinjection; format: ADME, organism-based, Macaca fascicularis; parameters: unit not given here; details: in vivo
Thalamus [35] = test: Drug uptake in anesthetized cynomolgus monkey brain thalamus after 135 mins postinjection; format: ADME, organism-based, Macaca fascicularis; parameters: unit not given here; details: in vivo, 2.25 h
[36] = Drug uptake in anesthetized cynomolgus monkey brain frontal lobe after 105 mins postinjection; format: ADME, organism-based, Macaca fascicularis; details: in vivo, 1.75 h
Medulla [37] = test: Drug uptake in anesthetized cynomolgus monkey brain medulla after 75 mins postinjection; format: ADME, organism-based, Macaca fascicularis; details: in vivo, 1.25 h
Thalamus [38] = test: Drug uptake in anesthetized cynomolgus monkey brain thalamus after 45 mins postinjection; format: ADME, organism-based, Macaca fascicularis; parameters: unit not given here; details: in vivo, 0.75 h
[39] = Ratio of drug uptake in pons to cerebellum in anesthetized cynomolgus monkey after 0.5 mins postinjection; format: ADME, organism-based, Macaca fascicularis; details: in vivo
Putamen [40] = test: Drug uptake in anesthetized cynomolgus monkey brain putamen after 22.5 mins postinjection; format: ADME, organism-based, Macaca fascicularis; parameters: unit not given here; details: in vivo, 0.375 h
[41] = Drug uptake in anesthetized cynomolgus monkey brain cerebellum after 18.5 mins postinjection; format: ADME, organism-based, Macaca fascicularis; details: in vivo
Pons [42] = test: Drug uptake in anesthetized cynomolgus monkey brain pons after 225 mins postinjection; format: ADME, organism-based, Macaca fascicularis; details: in vivo, 3.75 h
Putamen [43] = test: Drug uptake in anesthetized cynomolgus monkey brain putamen after 9.5 mins postinjection; format: ADME, organism-based, Macaca fascicularis; parameters: unit not given here; details: in vivo
[44] = Drug uptake in anesthetized cynomolgus monkey brain cerebellum after 1.5 mins postinjection; format: ADME, organism-based, Macaca fascicularis; details: in vivo, 0.025 h
Pons [45] = test: Drug uptake in anesthetized cynomolgus monkey brain pons after 115 mins postinjection; format: ADME, organism-based, Macaca fascicularis; details: in vivo
[46] = Ratio of drug uptake in caudate to cerebellum in anesthetized cynomolgus monkey after 9.5 mins postinjection; format: ADME, organism-based, Macaca fascicularis; details: in vivo
[47] = Ratio of drug uptake in pons to cerebellum in anesthetized cynomolgus monkey after 18.5 mins postinjection; format: ADME, organism-based, Macaca fascicularis; details: in vivo
Thalamus [48] = test: Drug uptake in anesthetized cynomolgus monkey brain thalamus after 225 mins postinjection; format: ADME, organism-based, Macaca fascicularis; parameters: unit not given here; details: in vivo, 3.75 h
[49] = Ratio of drug uptake in midbrain to cerebellum in anesthetized cynomolgus monkey after 125 mins postinjection; format: ADME, organism-based, Macaca fascicularis; details: in vivo
Pons [50] = test: Drug uptake in anesthetized cynomolgus monkey brain pons after 235 mins postinjection; format: ADME, organism-based, Macaca fascicularis; details: in vivo
[51] = Drug uptake in anesthetized cynomolgus monkey brain occipital lobe after 22.5 mins postinjection; format: ADME, organism-based, Macaca fascicularis; details: in vivo, 0.375 h
Pons [52] = test: Drug uptake in anesthetized cynomolgus monkey brain pons after 4.5 mins postinjection; format: ADME, organism-based, Macaca fascicularis; details: in vivo, 0.075 h
Caudate [53] = test: Drug uptake in anesthetized cynomolgus monkey brain caudate after 165 mins postinjection; format: ADME, organism-based, Macaca fascicularis, Caudate nucleus; details: in vivo, 2.75 h
[54] = Drug uptake in anesthetized cynomolgus monkey brain occipital lobe after 115 mins postinjection; format: ADME, organism-based, Macaca fascicularis; details: in vivo
Pons [55] = test: Drug uptake in anesthetized cynomolgus monkey brain pons after 9.5 mins postinjection; format: ADME, organism-based, Macaca fascicularis; details: in vivo
Thalamus [56] = test: Drug uptake in anesthetized cynomolgus monkey brain thalamus after 155 mins postinjection; format: ADME, organism-based, Macaca fascicularis; parameters: unit not given here; details: in vivo
[57] = Ratio of drug uptake in putamen to cerebellum in anesthetized cynomolgus monkey after 35 mins postinjection; format: ADME, organism-based, Macaca fascicularis; details: in vivo
Midbrain = test: Drug uptake in anesthetized cynomolgus monkey brain midbrain after 1.5 mins postinjection; format: ADME, organism-based, Macaca fascicularis; parameters: unit not given here; details: in vivo, 0.025 h
Thalamus [58] = test: Drug uptake in anesthetized cynomolgus monkey brain thalamus after 9.5 mins postinjection; format: ADME, organism-based, Macaca fascicularis; parameters: unit not given here; details: in vivo
[59] = Ratio of drug uptake in midbrain to cerebellum in anesthetized cynomolgus monkey after 95 mins postinjection; format: ADME, organism-based, Macaca fascicularis; details: in vivo
[60] = Drug uptake in anesthetized cynomolgus monkey brain occipital lobe after 1.5 mins postinjection; format: ADME, organism-based, Macaca fascicularis; details: in vivo, 0.025 h
Pons [61] = test: Drug uptake in anesthetized cynomolgus monkey brain pons after 105 mins postinjection; format: ADME, organism-based, Macaca fascicularis; details: in vivo, 1.75 h

O=C(OCCC[18F])C1C2CCC(CC1c1cccc(/C=C\Br)c1)N2 (configuration not stated)
Drug uptake (Caudate [1]): 4.94
Drug uptake [2]: 4.71
Ratio [3]: 1
Drug uptake (Pons [4]): 0.9
Drug uptake [5]: 5.03
Drug uptake (Pons [6]): 4.89
Drug uptake (Pons [7]): 3.84
Drug uptake (Medulla [8]): 5.19
Drug uptake (Medulla [9]): 2.91
Drug uptake (Putamen [10]): 2.28
Drug uptake [11]: 3.38
Ratio [12]: 1.5
Drug uptake [13]: 4.66
Ratio [14]: 1.6
Ratio [15]: 1.6
Drug uptake (Caudate [16]): 3.28
Drug uptake [17]: 3.22
Drug uptake [18]: 4.52
Drug uptake (Putamen [19]): 6.05
Drug uptake (Medulla [20]): 5.66
Drug uptake (Thalamus [21]): 5.39
Drug uptake (Putamen [22]): 4.74
Ratio [23]: 1.3
Drug uptake [24]: 5.61
Drug uptake (Putamen [25]): 6.11
Drug uptake [26]: 2.01
Drug uptake (Thalamus [27]): 5.08
Drug uptake (Pons [28]): 4.68
Drug uptake [29]: 3.67
Drug uptake [30]: 3.5
Drug uptake (Pons [31]): 0.38
Drug uptake (Medulla [32]): 5.61
Drug uptake (Pons [33]): 3.6
Drug uptake (Thalamus [34]): 1.89
Drug uptake (Thalamus [35]): 4.58
Drug uptake [36]: 3.19
Drug uptake (Medulla [37]): 5.49
Drug uptake (Thalamus [38]): 5.49
Ratio [39]: 1.6
Drug uptake (Putamen [40]): 5.81
Drug uptake [41]: 6.08
Drug uptake (Pons [42]): 3.21
Drug uptake (Putamen [43]): 5.12
Drug uptake [44]: 0.48
Drug uptake (Pons [45]): 4.2
Ratio [46]: 0.7
Ratio [47]: 0.7
Drug uptake (Thalamus [48]): 3.52
Ratio [49]: 1.8
Drug uptake (Pons [50]): 3.26
Drug uptake [51]: 4.5
Drug uptake (Pons [52]): 2.44
Drug uptake (Caudate [53]): 4.01
Drug uptake [54]: 3.72
Drug uptake (Pons [55]): 4.14
Drug uptake (Thalamus [56]): 4.27
Ratio [57]: 1.1
Drug uptake (Midbrain): 0.48
Drug uptake (Thalamus [58]): 4.02
Ratio [59]: 1.5
Drug uptake [60]: 0.3
Drug uptake (Pons [61]): 4.38
